Results published in patent publication US5219884A, “Immunosuppressant” (Taito Co., Ltd., priority 1990, dated 1993).
Converted amounts (≈) assume the structure as drawn. Like-named read-outs stand apart in the source and are kept apart here.

Legend:
mouse L929 cells = assay: cytotoxicity to mouse L929 cells; format: cell-based; settings: 550 nm
Description: Cytotoxicity to mouse L929 cells was assayed as follows:
L929 cells were suspended to the concentration of 1.5×10^5 cells/ml in the F12 culture medium supplemented with 10% FCS. One hundred μl of the suspension was added to each well of 96-well microculture plates, and cultured at 37° C. in an atmosphere of 5% carbon dioxide for 24 hours, to which 100 μl of the test solution was added and cultured for further 48 hours. After the culture, 100 μl of the supernatant was removed and the absorbancy at 550 nm was measured in the same way as the colormetry using MTT in Experimental Example 1. The percent suppression was calculated by the following formula used as the index of cytotoxicity. [formula]

[1] = cytotoxicity to tumor cell line MOLT4; format: cell-based, human; settings: human, molt4 cells, read-out: Suppression
Description: (§1) Cytotoxicity to human tumor cell lines was examined as follows:
(§2) Cells of human cell lines, K562, MOLT4, U937, HL60, KATOIII, KB, PC-6, PC-14 and CCRF-CEM were separately suspended to the concentration of 2×10^5 cells/ml in the RPMI1640 culture medium supplemented with 20% FCS. Fifty μl of this suspension was added to each well of 96-well microculture plates to which 50 μl of the test solution had been added. After culturing at 37° C. in an atmosphere of 5% carbon dioxide for 72 hours, the absorbancy at 550 nm was measured in the same way as the colorimetry using MTT in Experimental Example 1, and the percent suppression was calculated in the same manner as in Experimental Example 14, which was used as the index of cytotoxicity.

MOLT4 = assay: cytotoxicity to tumor cell line MOLT4; format: cell-based, human
Description: as §1, §2

[2] = test system: mouse allogenic mixed lymphocyte reaction (BALB/c responder, C57BL/6 stimulator spleen cells); assay: mouse allogenic mixed lymphocyte reaction (MLR), blastogenesis by 3H-thymidine uptake; format: cell-based
Description: The immunosuppressive activity of the compounds (I) and their lactones was assayed by using mouse allogenic mixed lymphocyte reaction (hereinafter sometimes abbreviated as MLR). Mouse allogenic MLR was carried out by mixed culture of the BALB/c mouse (H-2^d) spleen cells as the responder cells and the mitomycin C-treated C57BL/6 (H-2^b) spleen cells as the stimulator cells in equal amounts.
The responder cells were prepared as follows: The spleen was resected from 5- to 6-week-old male BALB/c mice, and single cell suspension of spleen cells was prepared by using the RPMI1640 culture medium (containing 60 μg/ml of kanamycin sulfate, 2 mM of L-glutamine, 10 mM of N-2-hydroxyethylpiperazine-N'-2-ethanesulfonate (HEPES) and 0.1% sodium hydrogencarbonate) to which heat-inactivated fetal calf serum (hereinaftersometimes abbreviated as FCS) had been added to 5%. After hemolytic treatment, the cell suspension was adjusted to a concentration of 10^7 cells/ml by using the RPMI1640 culture medium supplemented with 10^-4 M 2-mercaptoethanol and 20% FCS, and was used as the responder cell suspension.
The stimulator cells were prepared as follows:
The spleen was resected from 5- to 6-week-old male C57BL/6 mice, and single cell suspension of spleen cells was prepared by using the RPMI1640 culture medium. After hemolytic treatment, the cells were treated with 40 μg/ml of mitomycin C at 37° C. for 60 minutes. After washing three times, the concentration of the cell suspension was adjusted to 10^7 cells/ ml by using the RPMI1640 culture medium supplemented with 10^-4 M 2-mercaptoethanol and 20% FCS, and was used as the stimulator cell suspension.
Fifty μl of the responder cell suspension, 50μl of the stimulator cell suspension prepared by the above method, and 100 μl of the test substance were placed in 96-well microculture plates, and were cultured at 37° C. in an atmosphere of 5% carbon dioxide for 4 days.
The blastogenesis of lymphocytes was assayed by a method of ^3 H-thymidine uptake as an index. That is, after termination of the culture, 0.5 μCi/well of ^3 H-thymidine was added and cultured for 4 hours. Cells were harvested by a cell-harvester, and the radioactivity incorporated into the cells was determined by a liquid scintillation counter to obtain the index of blastogenesis of lymphocytes in the mouse allogenic MLR. The suppression of the mouse allogenic MLR was evaluated by calculating the percent suppression by the following formula. [formula]
The test substance was dissolved in methanol or suspended in a mixture of methanol and acetic acid, and then diluted with the RPMI1640 culture medium.

CCRF-CEM = assay: in vitro; format: cell-based, human
Description: as §1, §2

K562 = assay: in vitro; format: cell-based, human
Description: as §1, §2

KB = assay: in vitro; format: cell-based, human
Description: as §1, §2

U937 = assay: in vitro; format: cell-based, human
Description: as §1, §2

in vitro = format: cell-based, human; settings: human, read-out: Suppression
Description: as §1, §2

HL60 = assay: in vitro; format: cell-based, human
Description: as §1, §2

PC-14 = assay: in vitro; format: cell-based, human
Description: as §1, §2

[3] = Mus musculus, Lymphocyte, read-out: Suppression

`CCCCCCC(=O)CCCCCC/C=C/CC(O)C(O)C(N)(CO)C(=O)O` (stereo not shown) [Example 1] gave an Absorbancy (mouse L929 cells; 1 μg/ml) of 0.699, an Absorbancy (mouse L929 cells; 10 μg/ml) of 0.693 and an Absorbancy (mouse L929 cells; 100 μg/ml) of 0.321. For the same compound, the cytotoxicity at 72 h ([1]; 0.1 μg/ml) was 9.4%, the Absorbancy (MOLT4; 0.1 μg/ml) was 0.560 and the Absorbancy (MOLT4; 1.0 μg/ml) was 0.559. It also gave an Absorbancy (MOLT4; 10.0 μg/ml) of 0.499, an Absorbancy (MOLT4; 100.0 μg/ml) of 0.074 and a 3H-thymidine uptake ([2]; 0.001 μg/ml) of 14760 cpm. For the same compound, the 3H-thymidine uptake ([2]; 0.01 μg/ml) was 6436 cpm, the 3H-thymidine uptake ([2]; 0.1 μg/ml) was 686 cpm and the 3H-thymidine uptake ([2]; 1 μg/ml) was 698 cpm. It also gave an IC50 ([2]; Mus musculus, Lymphocyte, read-out: 50%-inhibition concentration (IC50)) of 7.1 ng/mL (≈ 0.0177 µM), an inhibition at 0.001 µg/mL [2, 3] of 0% and an inhibition at 0.01 µg/mL [2, 3] of 59.2%. For the same compound, the inhibition at 0.1 µg/mL [2, 3] was 100%, the inhibition at 1 µg/mL [2, 3] was 100% and the Absorbancy (CCRF-CEM; 0.01 μg/ml) was 0.678. It also gave an Absorbancy (CCRF-CEM; 0.1 μg/ml) of 0.709, an Absorbancy (CCRF-CEM; 1.0 μg/ml) of 0.660 and an Absorbancy (CCRF-CEM; 10.0 μg/ml) of 0.637. For the same compound, the Absorbancy (CCRF-CEM; 100.0 μg/ml) was 0.013, the Absorbancy (K562; 0.1 μg/ml) was 0.886 and the Absorbancy (K562; 1.0 μg/ml) was 0.905. It also gave an Absorbancy (K562; 10.0 μg/ml) of 0.929, an Absorbancy (K562; 100.0 μg/ml) of 0.583 and an Absorbancy (KB; 0.01 μg/ml) of 0.898. The Absorbancy (KB; 0.1 μg/ml) was 0.865, the Absorbancy (KB; 1.0 μg/ml) was 0.879 and the Absorbancy (KB; 10.0 μg/ml) was 0.886. For the same compound, the Absorbancy (KB; 100.0 μg/ml) was 0.025, the Absorbancy (U937; 0.1 μg/ml) was 0.619 and the Absorbancy (U937; 1.0 μg/ml) was 0.567. For the same compound, the Absorbancy (U937; 10.0 μg/ml) was 0.497, the Absorbancy (U937; 100.0 μg/ml) was 0.156 and the cytotoxicity at 72 h (in vitro; hl60 cells, 1.0 μg/ml) was 38.2%. For the same compound, the cytotoxicity at 72 h (in vitro; pc-14 cells, 1.0 μg/ml) was 7%, the Absorbancy (HL60; 0.1 μg/ml) was 0.402 and the Absorbancy (HL60; 1.0 μg/ml) was 0.390. The Absorbancy (HL60; 10.0 μg/ml) was 0.377, the Absorbancy (HL60; 100.0 μg/ml) was 0.101 and the Absorbancy (PC-14; 0.01 μg/ml) was 0.801. The Absorbancy (PC-14; 0.1 μg/ml) was 0.770, the Absorbancy (PC-14; 1.0 μg/ml) was 0.732 and the Absorbancy (PC-14; 10.0 μg/ml) was 0.751. For the same compound, the Absorbancy (PC-14; 100.0 μg/ml) was 0.074.
With `CCCCCCC(=O)CCCCCC/C=C/CC1OC(=O)C(N)(CO)C1O` (stereo not shown) [Example 4] the cytotoxicity at 72 h ([1]; 0.1 μg/ml) was 14%, the cytotoxicity at 72 h ([1]; 1.0 μg/ml) was 14.2% and the cytotoxicity at 72 h ([1]; 10.0 μg/ml) was 22.8%. The cytotoxicity at 72 h ([1]; 100.0 μg/ml) was 97.1%, the Absorbancy (MOLT4; 0.1 μg/ml) was 0.351 and the Absorbancy (MOLT4; 1.0 μg/ml) was 0.350. It also gave an Absorbancy (MOLT4; 10.0 μg/ml) of 0.315, an Absorbancy (MOLT4; 100.0 μg/ml) of 0.012 and a 3H-thymidine uptake ([2]; 0.001 μg/ml) of 29598 cpm. For the same compound, the 3H-thymidine uptake ([2]; 0.01 μg/ml) was 10394 cpm, the 3H-thymidine uptake ([2]; 0.1 μg/ml) was 1414 cpm and the inhibition at 0.001 µg/mL ([2]; Mus musculus, Lymphocyte, 0.001 μg/ml, read-out: Suppression) was 0.4%. It also gave an inhibition at 0.01 µg/mL ([2]; Mus musculus, Lymphocyte, 0.01 μg/ml, read-out: Suppression) of 70%, an inhibition at 0.1 µg/mL ([2]; Mus musculus, Lymphocyte, 0.1 μg/ml, read-out: Suppression) of 100% and an Absorbancy (CCRF-CEM; 0.1 μg/ml) of 0.564. For the same compound, the Absorbancy (CCRF-CEM; 1.0 μg/ml) was 0.556, the Absorbancy (CCRF-CEM; 10.0 μg/ml) was 0.389 and the Absorbancy (CCRF-CEM; 100.0 μg/ml) was 0.004. The Absorbancy (K562; 0.1 μg/ml) was 0.524, the Absorbancy (K562; 1.0 μg/ml) was 0.563 and the Absorbancy (K562; 10.0 μg/ml) was 0.525. For the same compound, the Absorbancy (K562; 100.0 μg/ml) was 0.007, the Absorbancy (KB; 0.1 μg/ml) was 0.884 and the Absorbancy (KB; 1.0 μg/ml) was 1.065. It also gave an Absorbancy (KB; 10.0 μg/ml) of 0.726, an Absorbancy (KB; 100.0 μg/ml) of 0.012 and an Absorbancy (U937; 0.1 μg/ml) of 0.313. It also gave an Absorbancy (U937; 1.0 μg/ml) of 0.384, an Absorbancy (U937; 10.0 μg/ml) of 0.362 and an Absorbancy (U937; 100.0 μg/ml) of 0.004. The cytotoxicity at 72 h (in vitro; ccrf-cem cells, 0.1 μg/ml) was 11.3%, the cytotoxicity at 72 h (in vitro; ccrf-cem cells, 1.0 μg/ml) was 12.6% and the cytotoxicity at 72 h (in vitro; ccrf-cem cells, 10.0 μg/ml) was 37.4%. For the same compound, the cytotoxicity at 72 h (in vitro; ccrf-cem cells, 100.0 μg/ml) was 99.4%, the cytotoxicity at 72 h (in vitro; hl60 cells, 0.1 μg/ml) was 23.4% and the cytotoxicity at 72 h (in vitro; hl60 cells, 1.0 μg/ml) was 13.3%. It also gave a cytotoxicity at 72 h (in vitro; hl60 cells, 10.0 μg/ml) of 21.1%, a cytotoxicity at 72 h (in vitro; hl60 cells, 100.0 μg/ml) of 97.7% and a cytotoxicity at 72 h (in vitro; k562 cells, 0.1 μg/ml) of 14.7%. For the same compound, the cytotoxicity at 72 h (in vitro; k562 cells, 1.0 μg/ml) was 8.3%, the cytotoxicity at 72 h (in vitro; k562 cells, 10.0 μg/ml) was 14.5% and the cytotoxicity at 72 h (in vitro; k562 cells, 100.0 μg/ml) was 98.9%. It also gave a cytotoxicity at 72 h (in vitro; katoiii cells, 0.1 μg/ml) of 5.3%, a cytotoxicity at 72 h (in vitro; katoiii cells, 1.0 μg/ml) of 6.7% and a cytotoxicity at 72 h (in vitro; katoiii cells, 10.0 μg/ml) of 25.8%. It also gave a cytotoxicity at 72 h (in vitro; katoiii cells, 100.0 μg/ml) of 97.9%, a cytotoxicity at 72 h (in vitro; kb cells, 0.1 μg/ml) of 19% and a cytotoxicity at 72 h (in vitro; kb cells, 1.0 μg/ml) of 2.5%. It also gave a cytotoxicity at 72 h (in vitro; kb cells, 10.0 μg/ml) of 33.5%, a cytotoxicity at 72 h (in vitro; kb cells, 100.0 μg/ml) of 99% and a cytotoxicity at 72 h (in vitro; pc-14 cells, 0.1 μg/ml) of 0%. The cytotoxicity at 72 h (in vitro; pc-14 cells, 1.0 μg/ml) was 0%, the cytotoxicity at 72 h (in vitro; pc-14 cells, 10.0 μg/ml) was 0% and the cytotoxicity at 72 h (in vitro; pc-14 cells, 100.0 μg/ml) was 95.3%. It also gave a cytotoxicity at 72 h (in vitro; u937 cells, 0.1 μg/ml) of 16.1%, a cytotoxicity at 72 h (in vitro; u937 cells, 1.0 μg/ml) of 0% and a cytotoxicity at 72 h (in vitro; u937 cells, 10.0 μg/ml) of 2.9%. The cytotoxicity at 72 h (in vitro; u937 cells, 100.0 μg/ml) was 99%, the Absorbancy (HL60; 0.1 μg/ml) was 0.265 and the Absorbancy (HL60; 1.0 μg/ml) was 0.300. For the same compound, the Absorbancy (HL60; 10.0 μg/ml) was 0.273, the Absorbancy (HL60; 100.0 μg/ml) was 0.008 and the Absorbancy (PC-14; 0.1 μg/ml) was 0.656. The Absorbancy (PC-14; 1.0 μg/ml) was 0.679, the Absorbancy (PC-14; 10.0 μg/ml) was 0.657 and the Absorbancy (PC-14; 100.0 μg/ml) was 0.030.
